Measured values: patent US20220089602A1, “COMPOUNDS THAT INDUCE FERROPTIC CELL DEATH” (The Board of Trustees of the University of Illinois, priority 2019, published 2022)
“Also recorded” adds a separate entry of the source.

What was measured:
[1] = tested on: ES-2 cells; assay: Confocal microscopy competition with fluorescent analogue P30; format: cell-based; settings: pretreatment at 3× IC50 for 30 min, then P30 (5 μM)
Method: ES-2 cells (3×10^5 cell) were attached overnight in […] petri dish plates containing 2 ml of RPMI media. Prior to imaging, cells were stained for 30 min with Mitotracker Red CMXRoss at 100 nM final concentration. Upon media replacement, samples were pre-treated with 3× IC50 of ferroptocide, P27, L1, QQ1 for 30 min followed by treatment with 5 μM P30 for an additional 30 min and a PBS wash. PBS or phenol free media was added to each dish and cells were stained with Hoechst 33342 (1 μg/mL).

[2] = tested on: ES-2 cell line; assay: 72 hr cell viability assay (Alamar Blue), dose response IC50; format: cell-based; settings: for IC50: Homo sapiens, 72 hr, ES-2 cell line, Alamar Blue fluorescence, mean ± s.e.m., n ≥ 3; for anticancer activity (in words): 72 hr cell viability assay, ES-2 cells, relative to ferroptocide
Method: 40 μL of media was added to each well of a 384-well tissue culture-treated plate. 3×100 nL of compound in DMSO was then pin-transferred from compound storage plates (2 mM stocks) into media-containing wells using the Platemate Plus at the UIUC High Throughput Screening Facility. A 100,000 cells/mL suspension of ES-2 cells was prepared, and 10 μL was added to each well for a final concentration of 1000 cells/well. Doxorubicin (100 μM final) was used as a positive control. Plates were sealed with gas-permeable seals and incubated at 37° C. for 72 h. After incubation, 5 μL of Alamar blue (440 μM resazurin in sterile PBS) was added and allowed to incubate for 3-4 h, until visible color change occurred. Fluorescence was measured in a Molecular Devices SpectraMax 3 (excitation=555 nm, emission=585 nm, emission cutoff=570 nm).
To a 384-well plate, 40 μL of 1.25× compound dilution or 1.25% DMSO-containing media was added (final volume of 1% DMSO). Concentrations of compounds tested were 100 μM to 100 nM. On each plate at least 3 technical replicates per compound were performed. Next, 10 μL of a 100,000 cells/mL suspension was added to each well, yielding a final concentration of 1,000 cells/well. To three wells in column 2 was added 1 μL of 10 mM doxorubicin (final concentration of 200 μM) as positive control of cell death. Plates were sealed with gas-permeable seals and incubated at 37° C. for 72 h. At that time, 5 μL of Alamar blue (440 μM resazurin in sterile PBS) was added and plates were incubated for 3-4 hours. Fluorescence was read on a Molecular Devices SpectraMax 3 (excitation=555 nm, emission=585 nm, emission cutoff=570 nm). Wells were normalized to the average of untreated wells (0% cell death). The data were plotted as compound concentration versus percent dead cells and fitted to a logistic-dose response curve using OriginPro 2015 (OriginLab, Northampton, Mass.). The data were generated in triplicate, and IC50 values are reported as the average of three separate experiments along with standard error of the mean.

[3] = tested on: red blood cells; assay: Hemolysis assay; format: cell-based, human; settings: 2 hr treatment with 333 μM
Method: Whole human blood in citrate phosphate dextrose was obtained from Bioreclamation LLC, stored at 4° C. and used before expiration date. 100 μL of whole blood was combined with 500 μL saline (0.9% NaCl) and centrifuged for 5 min at 300×g. The supernatant was carefully removed from the erythrocyte pellet and the liquid was discarded. Washed pellet 3× in 500 μL saline. The erythrocyte pellet was resuspended in 800 μL of Red Blood Cell Buffer (10 mM Na2HPO4, 150 mM NaCl, 1 mM MgCl2, pH 7.4). To a 0.5 mL eppendorf tube or a PCR plate was added 1.0 μL of 30× compound in DMSO and 19 μL RBC Buffer. For negative controls, 1.0 μL DMSO was combined with 19 μL RBC buffer. For positive controls, either 20 μL MilliQ H2O or 1.0 μL 30% Triton X-100 were combined with 19 μL RBC Buffer. Tubes or plates were briefly centrifuged. Next, 10 μL of washed erythrocyte suspension was added to each tube, then sealed. After incubation at 37° C. for 2 h, samples were centrifuged for 5 min at 300×g, and 20 μL of supernatant was carefully removed and transferred to wells of a clear flat-bottomed 384-well plate. Absorbance was measured at 540 nm. The data were plotted as compound concentration versus percent hemolysis, and fitted to OriginPro (OriginLab, Northampton, Mass.).

[4] = In vitro glutathione assay (LC-MS); format: physicochemical; settings: 100 μM compound, 5 mM glutathione, PBS, 37° C.
Method: To an eppendorf tube added, 245 μL of 1×PBS, 5 μL of 10 mM DMSO stock of ferroptocide or P23 and 250 μL of reduced GSH (5 mM final concentration). Reactions were vortexed briefly and incubated at 37° C. Adduct formation was monitored at the indicated time points (0, 0.5, 1, 2, 3, 24 hr) by mixing an aliquot of 50 μL from the reaction mixture with 50 μL of MeOH before LC/MS analysis.

[5] = tested on: A549 cells; assay: Protection studies against ferroptocide-induced cell death, AV/PI; format: cell-based; settings: pre-treatment with protecting agent
Method: (§1) ES-2, HCT 116, Mia PaCa-2, A549, and 4T1 cells (1×10^5 cells/mL) were plated overnight in 12 well plates, prior to addition of compounds. For protection studies, samples were pre-treated with each protecting agent such as 25 μM Q-VD-OPh, 250 μM trolox, 2 μM ferrostatin-1, 5 mM NAC-1 (neutralized pH), or 100 μM deferoxamine (DFO) for two hours or 1 hr (NAC-1) before compound addition. Cells were incubated for the appropriate times and harvested for flow cytometry analysis. Cell pellets were resuspended in binding buffer (10 mM HEPES, pH 7.4, 140 mM NaCl, 2.5 mM CaCl2) containing 2 μg/mL propidium iodide and 5 μL/mL Annexin V-FITC conjugate antibody and analyzed for cell viability after gating for forward and side scattering. Ten thousand events were collected per sample in BD LSR II Flow Cytometer (BD Bioscience) and FCS express V6, De Novo software was used to perform experimental analysis.

[6] = tested on: HCT 116 cells; assay: as above; format: cell-based; settings: pre-treatment with protecting agent
Method: Cells were incubated for the appropriate times and harvested for flow cytometry analysis. Cell pellets were resuspended in binding buffer (10 mM HEPES, pH 7.4, 140 mM NaCl, 2.5 mM CaCl2) containing 2 μg/mL propidium iodide and 5 μL/mL Annexin V-FITC conjugate antibody and analyzed for cell viability after gating for forward and side scattering. Ten thousand events were collected per sample in BD LSR II Flow Cytometer (BD Bioscience) and FCS express V6, De Novo software was used to perform experimental analysis.

[7] = tested on: ES-2 cells; assay: as above; format: cell-based; settings: pre-treatment with protecting agent
Method: as §1

[8] = tested on: 4T1 cells; assay: as above; format: cell-based, murine; settings: pre-treatment with protecting agent
Method: as §1

SMILES	IC50 [2] [µM]	anticancer activity (in words) [2]	other results
CC[C@H](C)C(=O)O[C@H]1C[C@@H](C)C=C2C=C[C@H](C)[C@H](CC[C@@H]3C[C@@H](OC(=O)CCl)CC(=O)O3)[C@H]21 [Compound L1]			competition of P30 staining [1]: non-competing compounds
C=CC(=C)[C@@H]1C[C@@H](OC(=O)CCl)[C@]2(C)[C@H](C)CC[C@]3(C[C@H](O)C(=O)[C@]32O)[C@H]1C [Compound P4]	6.7		hemolytic activity [3]: no signs of hemolytic activity; also recorded: Lack of hemolytic activity
CO[C@H]1C[C@@]23CC[C@@H](C)[C@@](C)([C@H](OC(=O)CCl)C[C@@H](C4=CCn5c(=O)n(-c6ccccc6)c(=O)n5C4)[C@@H]2C)[C@]3(O)C1=O [Compound P19]	1.9 ± 0.1	did not change the activity	
CC(=O)O[C@H]1C[C@@]23CC[C@@H](C)[C@@](C)([C@H](OC(=O)CCl)C[C@@H](C4=CCn5c(=O)n(-c6ccccc6)c(=O)n5C4)[C@@H]2C)[C@]3(O)C1=O [Compound P20]	1.4 ± 0.5	did not change the activity	
CO[C@H]1C[C@@]23CC[C@@H](C)[C@@](C)([C@H](OC(C)=O)C[C@@H](C4=CCn5c(=O)n(-c6ccccc6)c(=O)n5C4)[C@@H]2C)[C@]3(O)C1=O [Compound P21]	> 100	eliminated activity	
C[C@@H]1CC[C@@]23C[C@H](O)C(=O)[C@@]2(O)[C@]1(C)[C@H](OC(=O)CF)C[C@@H](C1=CCn2c(=O)n(-c4ccccc4)c(=O)n2C1)[C@@H]3C [Compound P22]	34 ± 5.7	greatly diminished anticancer activity	
C[C@@H]1CC[C@@]23C[C@H](O)C(=O)[C@@]2(O)[C@]1(C)[C@H](OC(=O)CI)C[C@@H](C1=CCn2c(=O)n(-c4ccccc4)c(=O)n2C1)[C@@H]3C [Compound P23]	0.24 ± 0.002	greater potency in cells	reactivity with excess glutathione (in words) [4]: rapid reaction
CC(=O)OCC(=O)O[C@@H]1C[C@@H](C2=CCn3c(=O)n(-c4ccccc4)c(=O)n3C2)[C@H](C)[C@@]23CC[C@@H](C)[C@]1(C)[C@]2(O)C(=O)[C@@H](O)C3 [Compound P24]	> 100	no anticancer activity	
CO[C@H]1C[C@@]23CC[C@@H](C)[C@@](C)([C@H](OC(=O)C(Cl)Cl)C[C@@H](C4=CCn5c(=O)n(-c6ccccc6)c(=O)n5C4)[C@@H]2C)[C@]3(O)C1=O [Compound P25]	> 100	no anticancer activity	
CO[C@H]1C[C@@]23CC[C@@H](C)[C@@](C)([C@H](OC(=O)c4ccco4)C[C@@H](C4=CCn5c(=O)n(-c6ccccc6)c(=O)n5C4)[C@@H]2C)[C@]3(O)C1=O [Compound P26]	> 100	no anticancer activity	
C=C[C@]1(C)C[C@@H](OC(=O)CCl)[C@]2(C)[C@H](C)CC[C@]3(CCC(=O)[C@H]32)[C@@H](C)[C@@H]1O [Compound P27]			competition of P30 staining [1]: non-competing compounds
C[C@@H]1CC[C@@]23C[C@H](O)C(=O)[C@@]2(O)[C@]1(C)[C@H](OC(=O)CCl)C[C@@H](C1=CCC2C(=O)N(c4ccccc4)C(=O)C2C1)[C@@H]3C (stereo partly shown) [Compound P28]		minimal loss in activity; also recorded: retain biological activity	
C#CCN1C(=O)C2CC=C([C@@H]3C[C@@H](OC(=O)CCl)[C@]4(C)[C@H](C)CC[C@]5(C[C@H](O)C(=O)[C@]54O)[C@H]3C)CC2C1=O (stereo partly shown) [Compound P29]		retained anticancer activity similar to ferroptocide; also recorded: retain biological activity	
CC1=CC(C)=[N+]2C1=Cc1ccc(CCC(=O)NCCCn3cc(CN4C(=O)C5CC=C([C@@H]6C[C@@H](OC(=O)CCl)[C@]7(C)[C@H](C)CC[C@]8(C[C@H](O)C(=O)[C@]87O)[C@H]6C)CC5C4=O)nn3)n1[B-]2(F)F (stereo partly shown) [Compound P30]		retained anticancer activity similar to ferroptocide; also recorded: retain biological activity	
CC(=O)N[C@@H](CS)C(=O)O [NAC-1, N-acteyl cysteine]			protection against ferroptocide-induced cell death [5]: protection from ferroptocide- and TBHP-induced cell death; protection against ferroptocide-induced cell death [6]: protection from ferroptocide- and TBHP-induced cell death
CC(C)[C@H](NC(=O)c1ccc2ccccc2n1)C(=O)N[C@@H](CC(=O)O)C(=O)COc1c(F)cccc1F [Q-VD-OPh]			protection against ferroptocide-induced cell death [7]: does not protect against ferroptocide-induced cell death; protection against ferroptocide-induced cell death [6]: does not protect against ferroptocide-induced cell death
C=CC1CN2CCC1CC2[C@H](OC(=O)CCl)c1ccnc2ccc(OC)cc12 (stereo partly shown) [QQ1]			competition of P30 staining [1]: non-competing compounds
CCOC(=O)c1ccc(NC2CCCCC2)c(N)c1 [ferrostatin-1]			protection against ferroptocide-induced cell death [5]: significantly protected against ferroptocide-induced cell death; protection against ferroptocide-induced cell death [7]: significantly protected against ferroptocide-induced cell death; protection against ferroptocide-induced cell death [6]: significantly protected against ferroptocide-induced cell death; protection against ferroptocide-induced cell death [8]: significantly protected against ferroptocide-induced cell death
Cc1c(C)c2c(c(C)c1O)CCC(C)(C(=O)O)O2 (stereo not shown) [trolox]			protection against ferroptocide-induced cell death [5]: significantly protected against ferroptocide-induced cell death; protection against ferroptocide-induced cell death [7]: significantly protected against ferroptocide-induced cell death; protection against ferroptocide-induced cell death [6]: significantly protected against ferroptocide-induced cell death; protection against ferroptocide-induced cell death [8]: significantly protected against ferroptocide-induced cell death
